For assay [1], the target named is T1, human PRS protein (His-Avi-hEPRS (998-1512)) (Homo sapiens, UniProt P07814).
T1 construct: to construct His-Avi-hEPRS (998-1512) expression plasmid; His tag (N); Avi tag (N); TEV cleavage site (ENLYFQG, then S; inferred from the forward primer hEPRS-TEV-NheF) (N); made in house; host or cells: E. coli BL21(DE3)
T1 sequence (P07814 998-1512 limits assumed): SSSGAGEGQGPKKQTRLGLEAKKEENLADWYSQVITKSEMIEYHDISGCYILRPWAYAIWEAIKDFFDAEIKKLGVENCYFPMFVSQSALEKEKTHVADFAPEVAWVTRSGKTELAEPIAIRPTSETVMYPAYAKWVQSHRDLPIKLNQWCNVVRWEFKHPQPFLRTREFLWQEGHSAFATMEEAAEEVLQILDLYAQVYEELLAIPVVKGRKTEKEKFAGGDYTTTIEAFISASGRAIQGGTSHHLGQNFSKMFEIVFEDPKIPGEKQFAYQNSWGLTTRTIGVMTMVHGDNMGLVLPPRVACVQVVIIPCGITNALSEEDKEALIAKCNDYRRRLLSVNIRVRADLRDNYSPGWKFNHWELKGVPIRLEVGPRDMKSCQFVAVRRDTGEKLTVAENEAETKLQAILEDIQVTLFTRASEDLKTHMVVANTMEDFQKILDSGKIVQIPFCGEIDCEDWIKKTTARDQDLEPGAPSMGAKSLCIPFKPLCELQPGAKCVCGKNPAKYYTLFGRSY
Description: PRS inhibitory activity ([32P]pyrophosphate exchange enzyme assay). The note with it: 300 nM test compound; read-out: inhibitory rate (%) of PRS. The class given is biochemical. The method in brief: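 Compound was pre-incubated 60 min with 40 nM His-Avi-hEPRS (998-1512) (stock, E. coli-expressed) in Tris pH 7.5/KCl/DTT/Tween/MgCl2. Reaction began with substrate mix containing 300 μM ATP, 160 μM L-proline, 400 μM [32P]pyrophosphate (stock levels) and ran 30 min at room temperature. Charcoal-bound radioactivity was counted; inhibition was relative to no-reaction control.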

In assay [2] the test system is human ovarian cancer cells A2780. Description: proliferation inhibitory activity against human ovarian cancer cell A2780 (CellTiter-Glo). As to conditions: A2780, 72 h, 1 μM test compound, 3 days of culture, read-out: proliferation inhibitory rate (%) of A2780 cells. The class given is cell-based. The method in brief: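 A2780 cells in RPMI-1640 with 10% FBS, compound added the day after seeding and cultured 3 days. Viability by CellTiter-Glo luminescence. Inhibition (%) calculated with cell-free wells as 100% inhibition.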
On the technique in general: Cellular ATP, detected with luciferase, serves as a proxy for viable cell number.

Assay [3] has as its system human fibrosarcoma cell line HT-1080. Description: antitumor action on mice transplanted with human fibrosarcoma cell line HT-1080. The class given is in vivo, mouse. The note with it: HT-1080, 10 mg/kg orally, once per day, 11 days. Here is the method: An antitumor action of the compound of the present invention on mice transplanted with human malignant melanoma cell line SKMEL-2 and human fibrosarcoma cell line HT-1080 was evaluated by the following method.
Human fibrosarcoma cell line HT-1080 was subcutaneously transplanted by injection into 7-week-old BALB/cA Jcl-nu/nu female mouse (CLEA Japan, Inc.) by 7.5×10^6 cells. At 8 days from transplantation, the tumor diameter of the engrafted tumor was measured and the tumor volume was calculated by the following formula. tumor volume=major axis×minor axis×minor axis×(½)
Individuals having a tumor volume of 100 to 300 mm^3 were selected for SKMEL-2, and individuals having a tumor volume of 200 to 400 mm^3 were selected for HT-1080, and 4 or 5 mice per group were used for the experiment. A 0.5% methylcellulose suspension of the test compound was orally administered to the mice at the dose (dose per administration), administration frequency and dosing period shown in Table 3. The tumor diameter was measured one day before the start of administration and one day after completion of administration and the tumor volume was calculated.
The tumor proliferation rate (T/C (%)) of the test compound administration group in comparison with the control administration group was calculated by the following formula. […]

On to `COc1cc(-c2cc(F)cc(CNC(=O)c3nccc4nc(C5CCCC5)n(C)c34)c2)ccn1` [Example 96, 2-cyclopentyl-N-(3-fluoro-5-(2-methoxypyridin-4-yl)benzyl)-3-methyl-3H-imidazo[4,5-c]pyridine-4-carboxamide], for which, in assay [1], the inhibition at 0.3 µM was 101%. For the same compound, in assay [2], the inhibition at 1 µM stood at 95%.
The like results for `Cn1cc(-c2cc(C#N)cc(CNC(=O)c3ncnc4nc(C5CCCO5)n(C)c34)c2)cn1` (stereo not drawn) [Example 23, N-(3-cyano-5-(l-methyl-1H-pyrazol-4-yl)benzyl)-7-methyl-8-(tetrahydrofuran-2-yl)-7H-purine-6-carboxamide] were, in that order, 102% and 69%.
`Cn1cc(-c2cc(F)cc(CNC(=O)c3ncc(F)c4nc(C5CCCC5)n(C)c34)c2)cn1` [Example 113, 2-cyclopentyl-7-fluoro-N-(3-fluoro-5-(1-methyl-1H-pyrazol-4-yl)benzyl)-3-methyl-3H-imidazo[4,5-c]pyridine-4-carboxamide]: the inhibition at 0.3 µM in assay [1] is 101%. The inhibition at 1 µM in assay [2] turned out to be 99%.
The like results for `Cn1cc(-c2cc(F)cc(CNC(=O)c3ncnc4nc(C5CCCCO5)[nH]c34)c2)cn1` (centres unmarked) [Example 31, N-(3-fluoro-5-(1-methyl-1H-pyrazol-4-yl)benzyl)-8-(tetrahydro-2H-pyran-2-yl)-7H-purine-6-carboxamide] were, in that order, 102% and 97%.
Consider `Cn1cc(-c2cc(F)cc(CNC(=O)c3ncnc4nc(C5COCCO5)[nH]c34)c2)cn1` (centres unmarked) [Example 32, 8-(1,4-dioxan-2-yl)-N-(3-fluoro-5-(1-methyl-1H-pyrazol-4-yl)benzyl)-7H-purine-6-carboxamide], for which, in assay [1], the inhibition at 0.3 µM was 101%. Further, the inhibition at 1 µM in assay [2] was found to be 76%. Moreover, the “T/C (%) tumor proliferation rate” value in assay [3] is -8.2%.
As to `Cn1cc(NC(=O)c2cccc(CNC(=O)c3nccc4nc(C5CCCC5)[nH]c34)c2)cn1` [Example 106, 2-cyclopentyl-N-(3-((1-methyl-1H-pyrazol-4-yl)carbamoyl)benzyl)-3H-imidazo[4,5-c]pyridine-4-carboxamide], in assay [1], the inhibition at 0.3 µM was found to be 99%. In addition, the inhibition at 1 µM in assay [2] worked out at 84%.
The corresponding values for `Cn1cc(-c2cc(F)cc(CNC(=O)c3nc(N)nc4nc(C5CCCC5)[nH]c34)c2)cn1` [Example 42, 2-amino-8-cyclopentyl-N-(3-fluoro-5-(1-methyl-1H-pyrazol-4-yl)benzyl)-7H-purine-6-carboxamide] are 98% and 59%.
As to `Cc1cc(N2CC[C@@](C#N)(C3CC3)C2=O)cc(C(=O)NCc2cc(F)cc(-c3cnn(C4CC4)c3)c2)n1` [Example 168, 4-((3S)-3-cyano-3-cyclopropyl-2-oxopyrrolidin-1-yl)-N-(3-(1-cyclopropyl-1H-pyrazol-4-yl)-5-fluorobenzyl)-6-methylpyridine-2-carboxamide], the inhibition at 0.3 µM in assay [1] came to 100%. Also, the inhibition at 1 µM in assay [2] amounted to 98%.
On to `Cn1cc(-c2cc(F)cc(CNC(=O)c3ncnc4nc(C5CCCC5)[nH]c34)c2)cn1` [Example 2, 8-cyclopentyl-N-(3-fluoro-5-(1-methyl-1H-pyrazol-4-yl)benzyl)-7H-purine-6-carboxamide], for which, in assay [1], the inhibition at 0.3 µM came to 101%. Besides, the inhibition at 1 µM in assay [2] was determined as 97%.
The corresponding values for `CCn1c(C2CCCC2)nc2ccnc(C(=O)NCc3cc(F)cc(-c4cnn(C)c4)c3)c21` [Example 101, 2-cyclopentyl-3-ethyl-N-(3-fluoro-5-(1-methyl-1H-pyrazol-4-yl)benzyl)-3H-imidazo[4,5-c]pyridine-4-carboxamide] are 102% and 98%.
The like results for `COc1nc(C(=O)NCc2cc(F)cc(-c3cnn(C)c3)c2)c2[nH]c(C3CCCC3)nc2n1` [Example 18, 8-cyclopentyl-N-(3-fluoro-5-(1-methyl-1H-pyrazol-4-yl)benzyl)-2-methoxy-7H-purine-6-carboxamide] were, in that order, 99% and 77%.

The record behind these values is US10774083B2, “Heterocyclic amide compound” (TAKEDA PHARMACEUTICAL COMPANY LIMITED, priority 2016, dated 2020).
